In brackets after ≈: the same amount, converted by molar mass. Bounds are passed on as bounds.

The target of one test is purified Ndh (Mtb recombinant MBP tagged Ndh-2 enzyme, MBP-Ndh) (Mycobacterium tuberculosis (strain ATCC 25618 / H37Rv), UniProt P95160). Nature of the test: Biochemical evaluation of MBP-Ndh inhibition (NADH oxidation with menadione).
Sequence of purified Ndh (Mtb recombinant MBP tagged Ndh-2 enzyme, MBP-Ndh) (P95160 whole entry, looked up): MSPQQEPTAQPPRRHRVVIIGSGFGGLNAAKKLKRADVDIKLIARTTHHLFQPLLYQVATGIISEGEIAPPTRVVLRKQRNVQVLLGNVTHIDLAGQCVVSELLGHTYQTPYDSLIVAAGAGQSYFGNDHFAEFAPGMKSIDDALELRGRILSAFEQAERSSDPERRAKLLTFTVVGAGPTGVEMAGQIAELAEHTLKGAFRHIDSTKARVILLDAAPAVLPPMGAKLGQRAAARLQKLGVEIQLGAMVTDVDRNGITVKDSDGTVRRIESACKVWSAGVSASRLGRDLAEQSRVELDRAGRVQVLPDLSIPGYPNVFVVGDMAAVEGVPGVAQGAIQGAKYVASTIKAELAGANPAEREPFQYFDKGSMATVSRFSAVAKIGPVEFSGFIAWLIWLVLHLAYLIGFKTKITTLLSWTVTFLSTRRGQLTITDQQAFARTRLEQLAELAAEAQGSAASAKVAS
Conditions: not given
On to `CC(C)[C@H]1CO[C@]23CCN(Cc4ccccn4)C[C@H]2CCC(=O)N13`, for which the IC50 (in general, the concentration that inhibits the measured activity by half) was in the range of 0.1 to 1 µM.

Staying with this test, now noted: NADH 500 μM, menadione 100 μM; read-out: IC50 (μM) purified Ndh.
`CC(C)[C@H]1CO[C@]23CCN(CCc4ccc(C(F)(F)F)cc4)C[C@H]2CCC(=O)N13`: the IC50 fell in the range of 0.1 to 1 µM.

Regarding `CC(C)[C@H]1CO[C@]23CCN(C(=O)Cc4ccccc4)C[C@H]2CCC(=O)N13` [(3S,7aR,11aR)-3-isopropyl-9-(2-phenylacetyl)-2,3,6,7,7a,8,10,11-octahydrooxazolo[2,3-j][1,6]naphthyridin-5-one], the IC50 is over 1 µM.

Consider `CC(C)[C@H]1CS[C@]23CCN(Cc4ccccc4)C[C@H]2CCC(=O)N13` [(3S,7aR,11aR)-9-benzyl-3-isopropyl-2,3,6,7,7a,8,10,11-octahydrothiazolo[2,3-j][1,6]naphthyridin-5-one], for which the IC50 was over 1 µM.

The test system of a further test is Mtb H37Rv-WT. Nature of the test: MIC by resazurin microtiter assay (REMA) against Mtb. In kind it is cell-based. The following applies: Mycobacterium tuberculosis, 144 h, REMA, 37° C., 6 days, read-out: MIC (μM) H37Rv-WT. (Resazurin is reduced to fluorescent resorufin, in cell work by metabolically active cells.)
For the compound `CC(C)[C@H]1CO[C@]23CCN(CCc4ccc(C(F)(F)F)cc4)C[C@H]2CCC(=O)N13`, the MIC (usually the lowest concentration found to suppress growth) was under 1 µM.

For the compound `CC(C)[C@H]1CO[C@]23CCN(C(=O)Cc4ccccc4)C[C@H]2CCC(=O)N13` [(3S,7aR,11aR)-3-isopropyl-9-(2-phenylacetyl)-2,3,6,7,7a,8,10,11-octahydrooxazolo[2,3-j][1,6]naphthyridin-5-one], the MIC was over 10 µM.

Take `CC(C)[C@H]1CO[C@]23CCN(Cc4ccc(C(F)(F)F)cc4)C[C@H]2CCC(=O)N13` [(3S,7aR,11aR)-3-isopropyl-9-[[4-(trifluoromethyl)phenyl]methyl]-2,3,6,7,7a,8,10,11-octahydrooxazolo[2,3-j][1,6]naphthyridin-5-one]: the MIC is under 1 µM.

For the compound `CC(C)[C@H]1CO[C@]23CC(=O)N(Cc4ccc(C(F)(F)F)cc4)C[C@H]2CCC(=O)N13` [(3S,7aR,11aR)-3-isopropyl-9-[[4-(trifluoromethyl)phenyl]methyl]-3,6,7,7a,8,11-hexahydro-2H-oxazolo[2,3-j][1,6]naphthyridine-5,10-dione], the MIC is over 10 µM.

For the compound `CC(C)[C@H]1CO[C@]23CCN(Cc4ccc(N5CCC(Oc6ccc(OC(F)(F)F)cc6)CC5)cc4)C[C@H]2CCC(=O)N13` [(3S,7aR,11aR)-3-isopropyl-9-[[4-[4-[4-(trifluoromethoxy)phenoxy]-1-piperidyl]phenyl]methyl]-2,3,6,7,7a,8,10,11-octahydrooxazolo[2,3-j][1,6]naphthyridin-5-one], the MIC is under 1 µM.

As for `CC(C)[C@H]1CO[C@]23CCN(Cc4ccc(N5CCC(c6ccc(OC(F)(F)F)cc6)CC5)cc4)C[C@H]2CCC(=O)N13` [(3S,7aR,11aR)-3-isopropyl-9-[[4-[4-[4-(trifluoromethoxy)phenyl]-1-piperidyl]phenyl]methyl]-2,3,6,7,7a,8,10,11-octahydrooxazolo[2,3-j][1,6]naphthyridin-5-one], the minimum inhibitory concentration (MIC) was under 1 µM.

As for `CC(C)[C@H]1CO[C@]23CCN(Cc4ccc(C(F)(F)F)cc4)C[C@H]2CC(F)(F)C(=O)N13` [(3S,7aR,11aR)-6,6-difluoro-3-isopropyl-9-[[4-(trifluoromethyl)phenyl]methyl]-3,7,7a,8,10,11-hexahydro-2H-oxazolo[2,3-j][1,6]naphthyridin-5-one], the MIC was under 1 µM.

For `CC(C)[C@H]1CO[C@]23CCN(Cc4ccc(C(F)(F)F)cc4)C[C@H]2C[C@@H](F)C(=O)N13` [(3S,7aR,11aR)-6-fluoro-3-isopropyl-9-[[4-(trifluoromethyl)phenyl]methyl]-2,3,6,7,7a,8,10,11-octahydrooxazolo[2,3-j][1,6]naphthyridin-5-one], the MIC was under 1 µM.

For `CC(C)[C@H]1CO[C@]23CCN(C(=O)C(F)(F)c4ccc(C(F)(F)F)cc4)C[C@H]2CCC(=O)N13` [(3S,7aR,11aR)-9-[2,2-difluoro-2-[4-(trifluoromethyl)phenyl]acetyl]-3-isopropyl-2,3,6,7,7a,8,10,11-octahydrooxazolo[2,3-j][1,6]naphthyridin-5-one], the MIC was over 10 µM.

For the compound `CC(C)[C@H]1CO[C@]23CCN(CC(F)(F)c4ccc(C(F)(F)F)cc4)C[C@H]2CCC(=O)N13` [(3S,7aR,11aR)-9-[2,2-difluoro-2-[4-(trifluoromethyl)phenyl]ethyl]-3-isopropyl-2,3,6,7,7a,8,10,11-octahydrooxazolo[2,3-j][1,6]naphthyridin-5-one], the MIC was under 1 µM.

For the compound `CC(C)[C@H]1CO[C@]23CCN(Cc4cc(C5CC5)nc5ccccc45)C[C@H]2CCC(=O)N13` [(3S,7aR,11aR)-9-[(2-cyclopropyl-4-quinolyl)methyl]-3-isopropyl-2,3,6,7,7a,8,10,11-octahydrooxazolo[2,3-j][1,6]naphthyridin-5-one], the MIC is under 1 µM.

For the compound `CC(C)[C@H]1CO[C@]23CCN(Cc4ccc(Cl)c(Cl)c4)C[C@H]2CCC(=O)N13` [(3S,7aR,11aR)-9-[(3,4-dichlorophenyl)methyl]-3-isopropyl-2,3,6,7,7a,8,10,11-octahydrooxazolo[2,3-j][1,6]naphthyridin-5-one], the MIC was under 1 µM.

Take `CC(C)[C@H]1CO[C@]23CCN(Cc4ccc(Cl)cc4)C[C@H]2CCC(=O)N13` [(3S,7aR,11aR)-9-[(4-chlorophenyl)methyl]-3-isopropyl-2,3,6,7,7a,8,10,11-octahydrooxazolo[2,3-j][1,6]naphthyridin-5-one]: the MIC was under 1 µM.

For the compound `CC(C)[C@H]1CO[C@]23CCN(Cc4ccc(F)cc4)C[C@H]2CCC(=O)N13` [(3S,7aR,11aR)-9-[(4-fluorophenyl)methyl]-3-isopropyl-2,3,6,7,7a,8,10,11-octahydrooxazolo[2,3-j][1,6]naphthyridin-5-one], the MIC was under 1 µM.

In the case of `CC(C)[C@H]1CO[C@]23CCN(Cc4ccc(O)cc4)C[C@H]2CCC(=O)N13` [(3S,7aR,11aR)-9-[(4-hydroxyphenyl)methyl]-3-isopropyl-2,3,6,7,7a,8,10,11-octahydrooxazolo[2,3-j][1,6]naphthyridin-5-one], the MIC was over 10 µM.

In the case of `CC(C)[C@H]1CO[C@]23CCN(Cc4ccc(C(F)(F)F)cc4C(F)(F)F)C[C@H]2CCC(=O)N13` [(3S,7aR,11aR)-9-[[2,4-bis(trifluoromethyl)phenyl]methyl]-3-isopropyl-2,3,6,7,7a,8,10,11-octahydrooxazolo[2,3-j][1,6]naphthyridin-5-one], the MIC is under 1 µM.

For `CC(C)[C@H]1CO[C@]23CCN(Cc4ccc(Cl)c(C(F)(F)F)c4)C[C@H]2CCC(=O)N13` [(3S,7aR,11aR)-9-[[4-chloro-3-(trifluoromethyl)phenyl]methyl]-3-isopropyl-2,3,6,7,7a,8,10,11-octahydrooxazolo[2,3-j][1,6]naphthyridin-5-one], the MIC is under 1 µM.

`O=C1CC[C@@H]2CN(Cc3ccccc3)CC[C@@]23OC[C@H](C2CC2)N13` [(3S,7aR,11aR)-9-benzyl-3-cyclopropyl-2,3,6,7,7a,8,10,11-octahydrooxazolo[2,3-j][1,6]naphthyridin-5-one]: the MIC is over 10 µM.

As for `CC(C)[C@H]1CO[C@]23CCN(C4CCCCC4)C[C@H]2CCC(=O)N13` [(3S,7aR,11aR)-9-cyclohexyl-3-isopropyl-2,3,6,7,7a,8,10,11-octahydrooxazolo[2,3-j][1,6]naphthyridin-5-one], the MIC was over 10 µM.

On to `CC(C)[C@H]1CO[C@]23CCN(Cc4ccc(C(F)(F)F)cc4)C(=O)[C@H]2CCC(=O)N13` [(3S,7aS,11aR)-3-isopropyl-9-[[4-(trifluoromethyl)phenyl]methyl]-3,6,7,7a,10,11-hexahydro-2H-oxazolo[2,3-j][1,6]naphthyridine-5,8-dione], for which the MIC is over 10 µM.

On to `CC(C)[C@H]1CO[C@]23CCCN(Cc4ccc(C(F)(F)F)cc4)C[C@H]2CCC(=O)N13` [(4S,9R)-4-isopropyl-11-[[4-(trifluoromethyl)phenyl]methyl]-2-oxa-5,11-diazatricyclo[7,5,0.01,5]tetradecan-6-one], for which the MIC was under 1 µM.

With `CC(C)[C@H]1CO[C@]23CCN(C(=O)OCc4ccc(C(F)(F)F)cc4)C[C@H]2CCC(=O)N13` [[4-(trifluoromethyl)phenyl]methyl (3S,7aR,11aR)-3-isopropyl-5-oxo-2,3,6,7,7a,8,10,11-octahydrooxazolo[2,3-j][1,6]naphthyridine-9-carboxylate], the MIC lay in the range of 1 to 10 µM (≈ 0.44 to 4.4 µg/mL).

The same test, now with this note: Mycobacterium tuberculosis, 144 h, REMA, read-out: MIC M. tuberculosis.
`CC(C)[C@H]1CO[C@]23CC[C@H](N(Cc4ccc(C(F)(F)F)cc4)Cc4ccc(C(F)(F)F)cc4)C[C@H]2CCC(=O)N13` [Example 70, (3S,7aR,9S,11aR)-9-[bis[[4-(trifluoromethyl)phenyl]methyl]ami-no]-3-isopropyl-3,6,7,7a,8,9,10,11-octahydro-2H-oxazolo[2,3-j]quinolin-5-one]: the MIC is under 1 µM.

Staying with this test, now noted: Mycobacterium tuberculosis, 144 h, read-out: MIC (μM) H37Rv-WT.
As to `CC(C)[C@H]1CO[C@]23CCN(Cc4ccccn4)C[C@H]2CCC(=O)N13`, the MIC fell in the range of 1 to 10 µM (≈ 0.329 to 3.29 µg/mL).

Still in this test, the particulars now being: Mycobacterium tuberculosis, REMA, read-out: MIC M. tuberculosis.
On to `CC(C)[C@H]1CO[C@]23CCN(Cc4ccc(C(F)(F)F)cc4C(F)(F)F)C[C@H]2CCC(=O)N13` [Example 10, (3S,7aR,11aR)-9-[[2,4-bis(trifluoromethyl)phenyl]methyl]-3-isopropyl-2,3,6,7,7a,8,10,11-octahydrooxazolo[2,3-j][1,6]naphthyridin-5-one], for which the MIC was under 1 µM.

Take `CC(C)[C@H]1CO[C@]23CCN(Cc4cc(C5CC5)nc5ccccc45)C[C@H]2CCC(=O)N13` [Example 24, (3S,7aR,11aR)-9-[(2-cyclopropyl-4-quinolyl)methyl]-3-isopropyl-2,3,6,7,7a,8,10,11-octahydrooxazolo[2,3-j][1,6]naphthyridin-5-one]: the MIC is under 1 µM.

As to `CC(C)[C@H]1CO[C@]23CCN(Cc4cc(C(F)(F)F)nc5ccccc45)C[C@H]2CCC(=O)N13` [Example 25, (3S,7aR,11aR)-3-isopropyl-9-[[2-(trifluoromethyl)-4-quinolyl]methyl]-2,3,6,7,7a,8,10,11-octahydrooxazolo[2,3-j][1,6]naphthyridin-5-one], the MIC is under 1 µM.

As for `CC(C)[C@H]1CO[C@]23CCN(CCc4ccc(C(F)(F)F)cc4)C[C@H]2CCC(=O)N13` [Example 38, (3S,7aR,11aR)-3-isopropyl-9-[2-[4-(trifluoromethyl)phenyl]ethyl]-2,3,67,7a,8,10,11-octahydrooxazolo[2,3-j][1,6]naphthyridin-5-one], the MIC is under 1 µM.

Consider `CC(C)[C@H]1CO[C@]23CCN(CCCc4ccc(C(F)(F)F)cc4)C[C@H]2CCC(=O)N13` [Example 39, (3S,7aR,11aR)-3-isopropyl-9-[3-[4-(trifluoromethyl)phenyl]propyl]-2,3,6,7,7a,8,10,11-octahydrooxazolo[2,3-j][1,6]naphthyridin-5-one], for which the MIC is under 1 µM.

These data come from US20250353863A1, “TRICYCLIC SPIROLACTAM COMPOUNDS WITH ANTIMYCOBACTERIAL ACTIVITY” (priority 2022, published 2025).
